Source: patent US12540128B2, “Substituted pyridazinones as herbicides” (SYNGENTA CROP PROTECTION AG, priority 2019, dated 2026)

Legend:
Format in all cases: in vivo
Details in all cases: 250 g/ha, after 13 days
[1] = tested on: Echinochloa crus-galli (ECHCG); experiment: B3 Pre-Emergence Efficacy Test 1
Protocol: (§1) Seeds of a variety of test species were sown in standard soil in pots: Solanum nigrum (SOLNI), Amaranthus retoflexus (AMARE), Setaria faberi (SETFA), Echinochloa crus-galli (ECHCG), Ipomoea hederacea (IPOHE), Lolium perenne (LOLPE). After cultivation for one day (pre-emergence) under controlled conditions in a glasshouse (at 24/16° C., day/night; 14 hours light; 65% humidity), the plants were sprayed with an aqueous spray solution derived from the formulation of the technical active ingredient in acetone/water (50:50) solution containing 0.5% Tween 20 (polyoxyethelyene sorbitan monolaurate, CAS RN 9005-64-5). Compounds are applied at 250 g/ha. The test plants were then grown in a glasshouse under controlled conditions (at 24/16° C., day/night; 14 hours light; 65% humidity) and watered twice daily. After 13 days, the test is evaluated for the percentage damage caused to the plant. The biological activities are assessed on a five point scale (5=80-100%; 4=60-79%; 3=40-59%; 2=20-39%; 1=0-19%). A blank value in the table is indicative that the compound was not tested on that species.

Solanum nigrum (SOLNI) [2] = experiment: B3 Pre-Emergence Efficacy Test 1
Protocol: as §1

Lolium perenne (LOLPE) [3] = experiment: B3 Pre-Emergence Efficacy Test 1
Protocol: as §1

Setaria faberi (SETFA) [4] = experiment: B3 Pre-Emergence Efficacy Test 1
Protocol: as §1

[5] = tested on: Ipomoea hederacea (IPOHE); experiment: B3 Pre-Emergence Efficacy Test 1
Protocol: as §1

[6] = tested on: Amaranthus retoflexus (AMARE); experiment: B3 Pre-Emergence Efficacy Test 1
Protocol: as §1

[7] = tested on: Echinochloa crus-galli (ECHCG); experiment: B1 Post-Emergence Efficacy Test 1
Protocol: (§2) Seeds of a variety of test species are sown in standard soil in pots:— Solanum nigrum (SOLNI), Amaranthus retoflexus (AMARE), Setaria faberi (SETFA), Echinochloa crus-galli (ECHCG), Ipomoea hederacea (IPOHE), Lolium perenne (LOLPE). After 8 days cultivation (post-emergence) under controlled conditions in a glasshouse (at 24/16° C., day/night; 14 hours light; 65% humidity), the plants are sprayed with an aqueous spray solution derived from the formulation of the technical active ingredient in acetone/water (50:50) solution containing 0.5% Tween 20 (polyoxyethylene sorbitan monolaurate, CAS RN 9005-64-5). Compounds are applied at 250 g/ha. The test plants are then grown in a glasshouse under controlled conditions in a glasshouse (at 24/16° C., day/night; 14 hours light; 65% humidity) and watered twice daily. After 13 days, the test is evaluated for the percentage damage caused to the plant. The biological activities are assessed on a five point scale (5=80-100%; 4=60-79%; 3=40-59%; 2=20-39%; 1=0-19%). A blank value in the table is indicative that the compound was not tested on that species.

Solanum nigrum (SOLNI) [8] = experiment: B1 Post-Emergence Efficacy Test 1
Protocol: as §2

Lolium perenne (LOLPE) [9] = experiment: B1 Post-Emergence Efficacy Test 1
Protocol: as §2

Setaria faberi (SETFA) [10] = experiment: B1 Post-Emergence Efficacy Test 1
Protocol: as §2

[11] = tested on: Ipomoea hederacea (IPOHE); experiment: B1 Post-Emergence Efficacy Test 1
Protocol: as §2

[12] = tested on: Amaranthus retoflexus (AMARE); experiment: B1 Post-Emergence Efficacy Test 1
Protocol: as §2

Compound	percentage damage caused to the plant, five point scale, ECHCG [1]	percentage damage caused to the plant, five point scale, SOLNI (Solanum nigrum (SOLNI) [2])	percentage damage caused to the plant, five point scale, LOLPE (Lolium perenne (LOLPE) [3])	percentage damage caused to the plant, five point scale, SETFA (Setaria faberi (SETFA) [4])	percentage damage caused to the plant, five point scale, IPOHE [5]	percentage damage caused to the plant, five point scale, AMARE [6]	percentage damage caused to the plant, five point scale, ECHCG [7]	percentage damage caused to the plant, five point scale, SOLNI (Solanum nigrum (SOLNI) [8])	percentage damage caused to the plant, five point scale, LOLPE (Lolium perenne (LOLPE) [9])	percentage damage caused to the plant, five point scale, SETFA (Setaria faberi (SETFA) [10])	percentage damage caused to the plant, five point scale, IPOHE [11]	percentage damage caused to the plant, five point scale, AMARE [12]
Cc1ccc2cc(CCc3c(Cl)ccc(F)c3-c3c(OC(=O)C(C)C)c(C)nn(C)c3=O)ccc2n1 [Compound 3.034, [5-[3-chloro-6-fluoro-2-[2-(2-methyl-6-quinolyl)ethyl]phenyl]-1,3-dimethyl-6-oxo-pyridazin-4-yl] 2-methylpropanoate]	5 (5=80-100%)	5 (5=80-100%)	5 (5=80-100%)	5 (5=80-100%)	2 (2=20-39%)	5 (5=80-100%)	4 (4=60-79%)	5 (5=80-100%)	5 (5=80-100%)	5 (5=80-100%)	4 (4=60-79%)	4 (4=60-79%)
Cc1nn(C)c(=O)c(-c2c(F)ccc(Cl)c2/C=C/c2ccc3c(c2)OC(F)(F)O3)c1OC(=O)C(C)C [Compound 4.342]	0	3 (3=40-59%)	0	0	1 (1=0-19%)	1 (1=0-19%)	1 (1=0-19%)	4 (4=60-79%)	2 (2=20-39%)	1 (1=0-19%)	3 (3=40-59%)	0
